One assay has as its target Mucolipin-3 (Homo sapiens, UniProt Q8TDD5). Briefly: Dose response cell-based high-throughput screening assay for agonists of the transient receptor potential channel ML3 (TRPML3). [Related pubchem assays: 1526, 1424, 1448 ]. It is filed as functional.
In the next assay the target is Ion channel NompC (Danio rerio, UniProt Q7T1G6). Briefly: Fluorescence counterscreen assay for TRPML3 agonists: dose response cell-based high-throughput screening assay to identify agonists of the transient receptor potential channel N1 (TRPN1). [Related pubchem assays: 1526, 1424, 1448 ]. Type of assay: functional. In general terms: Counterscreens check selectivity or assay interference.

A further assay relates to INS1. Briefly: beta cell apoptosis inhibitors, cytokine rescue, dose response, luminescence, retest (AID 449756).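 Note: cell death triggered by IL-1 beta plus TNF-alpha plus IFN-gamma mixture; protective hits raise ATP signal compared with cytokine alone wells.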 Type of assay: functional, cell-based. The note with it: Rattus norvegicus.
For a further assay, the target named is Beta Lactamase (Pseudomonas aeruginosa, UniProt Q932Y6). Briefly: beta-lactamase reporter inhibitor potency, dose response, artefact control for TLR9-MyD88 binding inhibitor project, BLA reporter cells, FRET fluorescence (AID 588341).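 Note: cell based assay in CHO-K1 cells stably expressing beta-lactamase.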 Type of assay: cell-based.
The test system of a further assay is CHO. Briefly: cytotoxicity in TLR9-MyD88 CHO cells, dose response, cytotoxicity control for TLR9-MyD88 binding inhibitor project, cell-based, luminescence (AID 588339).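 Note: CHO cells stably coexpressing TLR9 and MyD88 fusions from primary screen; compound exposure lasted 48 hours before viability readout.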 The conditions noted are these: Cricetulus griseus. Type of assay: functional, hamster.
The subject of a further assay is HeLa. Briefly: Cytotoxicity counterscreen assay for transcriptional activators of heat shock protein 70 (Hsp70). [Related pubchem assays: 1203, 1252 ]. Type of assay: functional. The note with it: Homo sapiens.
The nature of assay [1]: Fluorescence-based cell-based high throughput dose response assay for inhibitors of the interaction of nucleotide-binding oligomerization domain containing 2 (NOD2) and the receptor-interacting serine-threonine kinase 2 (RIPK2). The conditions noted are these: Homo sapiens. Type of assay: functional.
A short description of assay [2]: growth suppression of PTEN-null colon cells, dose response, cell-based, HCT116 PTEN knockout (AID 1047).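 Note: HCT116 colon tumor cells with PTEN knocked out; cells exposed to compound for 60 hours before readout; potency for loss of cell viability measured by luminescence.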 It is filed as functional.
A short description of assay [3]: non-specific cell cytotoxicity, dose response, cytotoxicity control for PAX8 inhibitor project, plate reader, dry powder samples (AID 743021). Type of assay: functional, cell-based.
A short description of assay [4]: THP-1 cell cytotoxicity, dose response, cytotoxicity control for non-replicating M. tuberculosis project (AID 489025). Type of assay: functional.
Assay [5] can be described thus: cells. Type of assay: functional.
A short description of assay [6]: Vero E6 cell cytotoxicity, dose response, cytotoxicity control for non-replicating M. tuberculosis project, secondary assay (AID 492998). It is filed as functional, VeroE6. The conditions noted are these: Vero C1008.
A short description of assay [7]: microbe, parasite or virus in culture. Type of assay: functional. The note with it: Mycobacterium tuberculosis.
The target in another assay is Paired box protein Pax-8 (Homo sapiens, UniProt Q06710). Briefly: inhibitors of PAX8-driven TPO luciferase reporter, dose response, RMG-I cells, cherry-pick (AID 687027).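 Note: luciferase reporter driven by Pax8 target thyroperoxidase promoter measured by SteadyGlo luminescence.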 It is filed as functional, cell-based. Background: A reporter such as luciferase makes a cellular process visible.
Assay [8] can be described thus: growth suppression of beta-catenin-knockout colon cells, dose response, cell-based, HCT116, human colon tumor (AID 1045).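 Note: HCT116 colon tumor cells with beta catenin knocked out; cells exposed to compound for 60 hours.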 Type of assay: functional.
The target in assay [9] is Photoreceptor-specific nuclear receptor (Homo sapiens, UniProt Q9Y5X4). It is filed as functional, cell-based.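 Note: CHO-S cells with Gal4-NCOR and VP16-NR2E3 two-hybrid luciferase reporter.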
Assay [10] has as its system Streptococcus sp. 'group A'. Briefly: growth inhibition of control SK(-) GAS strain, dose response, counter-screen for streptokinase expression inhibitor project, luminescence, kanamycin, BacTiterGlo, confirmation (AID 1900). It is filed as functional, organism-based.
Another assay has as its system Streptococcus. Briefly: Group A Streptococcus viability loss, dose response, counter-screen for streptokinase expression inhibitor project, luminescence, BacTiterGlo (AID 1915).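 Note: potency for reduction of bacterial viability or growth.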 Type of assay: functional, organism-based.
Another assay concerns the target T1, Streptokinase A (Streptococcus pyogenes serotype M1, UniProt P10520).
T1 sequence (P10520 whole entry): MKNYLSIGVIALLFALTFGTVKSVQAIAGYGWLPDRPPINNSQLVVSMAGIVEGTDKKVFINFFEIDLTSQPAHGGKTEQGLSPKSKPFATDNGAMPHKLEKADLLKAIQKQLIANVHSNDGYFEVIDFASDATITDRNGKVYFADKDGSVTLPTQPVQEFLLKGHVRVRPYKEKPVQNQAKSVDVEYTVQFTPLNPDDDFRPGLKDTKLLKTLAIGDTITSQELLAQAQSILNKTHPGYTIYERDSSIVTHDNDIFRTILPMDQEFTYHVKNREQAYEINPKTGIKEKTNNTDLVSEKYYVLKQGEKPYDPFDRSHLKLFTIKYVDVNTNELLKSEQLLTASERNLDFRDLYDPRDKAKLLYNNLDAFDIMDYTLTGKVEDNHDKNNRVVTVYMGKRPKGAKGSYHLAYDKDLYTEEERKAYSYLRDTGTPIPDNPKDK
Briefly: S. pyogenes streptokinase expression inhibitors, potency, dose response, plasminogen activation absorbance, OD405 (AID 1914).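 Note: secreted streptokinase activity via plasminogen activation per viability signal from cell pellet.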 It is filed as functional, Streptococcus pyogenes M1 GAS.

The target in the next assay is T2, Estrogen receptor (Homo sapiens, UniProt P03372).
T2 sequence (P03372 whole entry): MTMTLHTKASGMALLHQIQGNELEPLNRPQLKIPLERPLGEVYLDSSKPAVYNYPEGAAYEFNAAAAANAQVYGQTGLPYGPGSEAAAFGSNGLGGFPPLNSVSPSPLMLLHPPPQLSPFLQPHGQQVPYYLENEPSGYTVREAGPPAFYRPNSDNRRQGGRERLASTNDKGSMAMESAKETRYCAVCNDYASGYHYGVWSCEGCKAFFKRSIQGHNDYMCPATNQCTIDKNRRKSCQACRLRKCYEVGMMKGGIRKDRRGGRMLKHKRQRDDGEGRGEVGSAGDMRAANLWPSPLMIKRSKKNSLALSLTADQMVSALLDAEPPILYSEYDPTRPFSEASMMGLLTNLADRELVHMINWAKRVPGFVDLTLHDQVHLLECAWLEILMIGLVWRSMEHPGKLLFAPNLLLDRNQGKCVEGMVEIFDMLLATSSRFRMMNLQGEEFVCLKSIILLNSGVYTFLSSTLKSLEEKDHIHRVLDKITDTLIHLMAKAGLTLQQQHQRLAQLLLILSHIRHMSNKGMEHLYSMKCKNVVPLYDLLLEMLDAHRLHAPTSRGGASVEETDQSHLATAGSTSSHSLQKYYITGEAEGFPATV
Briefly: potentiators of ERα–SRC-1 coactivator binding, dose response, biochemical, TR-FRET, ERα LBD (AID 737). On the technique in general: TR-FRET usually uses a lanthanide donor and a delayed reading to cut background.

Assay [11] in a line: cells.
Assay [12] can be described thus: inhibitors of Bluetongue virus cytopathic effect, confirmation, arbovirus, BSR cells (AID 1250).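 Note: protection from viral cytopathic effect measured as cell viability by ATP luminescence.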 It is filed as functional.
Assay [13] in a line: HEp-2 cell cytotoxicity, dose response, cytotoxicity control for RSV inhibitor project, HTS (AID 2410). It is filed as functional. The conditions noted are these: human respiratory syncytial virus.
Assay [14] concerns the target Long-chain-fatty-acid--AMP ligase FadD28 (Mycobacterium tuberculosis, UniProt P9WQ59). Briefly: Fluorescence polarization aasay to screen for inhibitors that compete for the binding of FadD28 to a bisubstrate Measured in Biochemical System Using Plate Reader - 2147-01_Inhibitor_Dose_CherryPick_Activity. It is filed as functional, Mycobacterium tuberculosis H37Rv.
In a further assay the target is NS3 (Hepatitis C virus, UniProt A3EZJ3). Briefly: PubChem AID 2173. The arrangement: species or system Hepacivirus hominis.
For another assay, the target named is Bcl-2-like protein 10 (Homo sapiens, UniProt Q9HD36). Briefly: Biochemical TR3 FP assay of Bcl-B inhibitor potency, EC50 (AID 1243). It is filed as functional.
Assay [15] addresses T3, Neuropeptide Y receptor type 1 (Homo sapiens, UniProt P25929).
T3 sequence (P25929 whole entry): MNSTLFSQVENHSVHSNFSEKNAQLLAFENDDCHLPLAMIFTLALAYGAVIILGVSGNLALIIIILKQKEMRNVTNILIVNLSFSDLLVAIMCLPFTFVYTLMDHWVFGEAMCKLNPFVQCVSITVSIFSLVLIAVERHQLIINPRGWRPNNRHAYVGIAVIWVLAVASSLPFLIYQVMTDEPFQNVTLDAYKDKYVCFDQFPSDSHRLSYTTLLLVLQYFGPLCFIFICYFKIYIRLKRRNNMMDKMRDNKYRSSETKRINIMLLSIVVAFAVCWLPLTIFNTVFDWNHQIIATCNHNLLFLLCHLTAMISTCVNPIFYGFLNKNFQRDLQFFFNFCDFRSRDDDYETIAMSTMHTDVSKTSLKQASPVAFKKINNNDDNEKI
It is filed as functional.

For assay [16], the target named is T4, Neuropeptide Y receptor type 2 (Homo sapiens, UniProt P49146).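 Note: HEK293 cells expressing the receptor and a CNG channel; stimulus was NPY near EC95 followed by isoproterenol to raise cAMP; antagonist potency measured as restoring cAMP signal that NPY suppresses.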
T4 sequence (P49146 whole entry): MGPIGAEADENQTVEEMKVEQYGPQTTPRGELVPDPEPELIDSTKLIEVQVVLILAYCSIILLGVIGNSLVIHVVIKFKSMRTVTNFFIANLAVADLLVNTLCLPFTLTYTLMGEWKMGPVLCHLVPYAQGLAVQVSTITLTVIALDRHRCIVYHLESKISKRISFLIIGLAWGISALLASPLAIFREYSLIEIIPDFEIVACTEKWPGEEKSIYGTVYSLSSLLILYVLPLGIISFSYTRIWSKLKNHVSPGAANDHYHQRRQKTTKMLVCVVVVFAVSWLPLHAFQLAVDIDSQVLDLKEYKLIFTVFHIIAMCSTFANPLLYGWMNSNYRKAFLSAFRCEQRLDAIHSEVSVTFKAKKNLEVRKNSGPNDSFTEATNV
Type of assay: functional, cell-based.

Active and inactive are the calls of the source. A value given as a limit tells only on which side of the number the result lay.

Sequence of Beta Lactamase (Q932Y6 whole entry, the tested form may be a part): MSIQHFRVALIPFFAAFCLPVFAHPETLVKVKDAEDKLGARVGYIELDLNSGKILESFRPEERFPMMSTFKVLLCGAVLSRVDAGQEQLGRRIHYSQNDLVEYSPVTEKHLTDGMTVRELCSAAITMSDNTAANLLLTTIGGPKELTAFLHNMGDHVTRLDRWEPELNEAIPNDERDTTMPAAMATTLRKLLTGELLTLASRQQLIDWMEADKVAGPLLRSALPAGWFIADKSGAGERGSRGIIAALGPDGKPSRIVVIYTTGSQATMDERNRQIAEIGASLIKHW
Sequence of Paired box protein Pax-8 (Q06710 whole entry): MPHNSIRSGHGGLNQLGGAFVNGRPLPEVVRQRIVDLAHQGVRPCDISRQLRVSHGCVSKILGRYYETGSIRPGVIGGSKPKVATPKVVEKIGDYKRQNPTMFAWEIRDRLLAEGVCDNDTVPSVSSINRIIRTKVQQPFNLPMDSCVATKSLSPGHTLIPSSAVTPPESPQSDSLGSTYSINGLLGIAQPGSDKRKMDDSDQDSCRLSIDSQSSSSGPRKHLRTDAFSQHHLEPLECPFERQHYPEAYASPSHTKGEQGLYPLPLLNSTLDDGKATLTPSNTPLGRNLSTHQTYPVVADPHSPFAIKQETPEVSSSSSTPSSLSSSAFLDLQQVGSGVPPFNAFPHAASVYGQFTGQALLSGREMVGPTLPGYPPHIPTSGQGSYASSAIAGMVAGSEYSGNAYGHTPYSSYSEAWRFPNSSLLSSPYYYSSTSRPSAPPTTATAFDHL
Sequence of Bcl-2-like protein 10 (Q9HD36 whole entry): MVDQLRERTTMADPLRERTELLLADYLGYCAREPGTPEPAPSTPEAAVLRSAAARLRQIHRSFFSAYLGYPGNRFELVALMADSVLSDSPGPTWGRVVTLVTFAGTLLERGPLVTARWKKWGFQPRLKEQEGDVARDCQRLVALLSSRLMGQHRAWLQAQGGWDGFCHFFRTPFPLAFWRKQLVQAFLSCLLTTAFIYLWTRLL
Sequence of Photoreceptor-specific nuclear receptor (Q9Y5X4 whole entry, the tested form may be a part): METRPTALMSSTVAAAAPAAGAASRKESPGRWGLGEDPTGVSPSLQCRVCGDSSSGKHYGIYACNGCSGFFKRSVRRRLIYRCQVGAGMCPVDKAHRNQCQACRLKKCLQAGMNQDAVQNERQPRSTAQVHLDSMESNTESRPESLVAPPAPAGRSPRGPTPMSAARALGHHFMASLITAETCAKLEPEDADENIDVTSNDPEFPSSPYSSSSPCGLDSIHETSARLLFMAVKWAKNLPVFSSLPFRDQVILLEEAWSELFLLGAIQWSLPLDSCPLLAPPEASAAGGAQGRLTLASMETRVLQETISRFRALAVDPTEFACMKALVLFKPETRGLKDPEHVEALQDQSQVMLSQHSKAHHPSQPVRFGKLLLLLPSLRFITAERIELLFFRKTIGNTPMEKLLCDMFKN
Sequence of Long-chain-fatty-acid--AMP ligase FadD28 (P9WQ59 whole entry): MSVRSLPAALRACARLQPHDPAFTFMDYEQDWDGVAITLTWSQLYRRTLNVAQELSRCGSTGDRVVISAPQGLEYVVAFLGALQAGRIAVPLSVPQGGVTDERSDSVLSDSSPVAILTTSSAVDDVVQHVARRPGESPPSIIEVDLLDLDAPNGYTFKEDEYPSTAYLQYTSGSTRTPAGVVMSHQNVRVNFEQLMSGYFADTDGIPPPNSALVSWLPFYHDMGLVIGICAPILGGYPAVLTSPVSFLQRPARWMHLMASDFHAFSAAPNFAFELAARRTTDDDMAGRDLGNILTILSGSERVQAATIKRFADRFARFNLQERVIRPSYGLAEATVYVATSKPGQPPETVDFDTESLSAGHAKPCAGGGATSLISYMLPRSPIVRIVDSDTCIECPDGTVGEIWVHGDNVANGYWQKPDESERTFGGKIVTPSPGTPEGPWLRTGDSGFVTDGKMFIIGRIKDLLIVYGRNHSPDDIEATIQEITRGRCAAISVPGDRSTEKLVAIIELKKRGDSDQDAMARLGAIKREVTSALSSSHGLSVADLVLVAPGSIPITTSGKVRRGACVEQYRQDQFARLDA
Sequence of NS3 (A3EZJ3 whole entry): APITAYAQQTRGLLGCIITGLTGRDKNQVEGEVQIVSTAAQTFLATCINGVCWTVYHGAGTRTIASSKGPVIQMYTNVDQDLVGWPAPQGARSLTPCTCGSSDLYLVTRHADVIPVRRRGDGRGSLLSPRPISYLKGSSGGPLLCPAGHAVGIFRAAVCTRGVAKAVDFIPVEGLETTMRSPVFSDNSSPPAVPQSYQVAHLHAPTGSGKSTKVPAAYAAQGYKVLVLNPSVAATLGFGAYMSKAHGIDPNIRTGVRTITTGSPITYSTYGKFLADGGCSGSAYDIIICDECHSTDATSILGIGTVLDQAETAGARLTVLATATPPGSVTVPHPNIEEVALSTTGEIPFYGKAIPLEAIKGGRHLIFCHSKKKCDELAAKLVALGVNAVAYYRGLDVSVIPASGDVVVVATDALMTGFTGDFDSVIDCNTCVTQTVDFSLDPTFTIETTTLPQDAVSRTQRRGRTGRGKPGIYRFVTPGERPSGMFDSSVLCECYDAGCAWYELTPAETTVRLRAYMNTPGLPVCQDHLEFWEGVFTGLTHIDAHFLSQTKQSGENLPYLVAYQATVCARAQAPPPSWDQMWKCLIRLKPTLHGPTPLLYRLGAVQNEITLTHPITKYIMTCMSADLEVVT
Sequence of Ion channel NompC (Q7T1G6 whole entry): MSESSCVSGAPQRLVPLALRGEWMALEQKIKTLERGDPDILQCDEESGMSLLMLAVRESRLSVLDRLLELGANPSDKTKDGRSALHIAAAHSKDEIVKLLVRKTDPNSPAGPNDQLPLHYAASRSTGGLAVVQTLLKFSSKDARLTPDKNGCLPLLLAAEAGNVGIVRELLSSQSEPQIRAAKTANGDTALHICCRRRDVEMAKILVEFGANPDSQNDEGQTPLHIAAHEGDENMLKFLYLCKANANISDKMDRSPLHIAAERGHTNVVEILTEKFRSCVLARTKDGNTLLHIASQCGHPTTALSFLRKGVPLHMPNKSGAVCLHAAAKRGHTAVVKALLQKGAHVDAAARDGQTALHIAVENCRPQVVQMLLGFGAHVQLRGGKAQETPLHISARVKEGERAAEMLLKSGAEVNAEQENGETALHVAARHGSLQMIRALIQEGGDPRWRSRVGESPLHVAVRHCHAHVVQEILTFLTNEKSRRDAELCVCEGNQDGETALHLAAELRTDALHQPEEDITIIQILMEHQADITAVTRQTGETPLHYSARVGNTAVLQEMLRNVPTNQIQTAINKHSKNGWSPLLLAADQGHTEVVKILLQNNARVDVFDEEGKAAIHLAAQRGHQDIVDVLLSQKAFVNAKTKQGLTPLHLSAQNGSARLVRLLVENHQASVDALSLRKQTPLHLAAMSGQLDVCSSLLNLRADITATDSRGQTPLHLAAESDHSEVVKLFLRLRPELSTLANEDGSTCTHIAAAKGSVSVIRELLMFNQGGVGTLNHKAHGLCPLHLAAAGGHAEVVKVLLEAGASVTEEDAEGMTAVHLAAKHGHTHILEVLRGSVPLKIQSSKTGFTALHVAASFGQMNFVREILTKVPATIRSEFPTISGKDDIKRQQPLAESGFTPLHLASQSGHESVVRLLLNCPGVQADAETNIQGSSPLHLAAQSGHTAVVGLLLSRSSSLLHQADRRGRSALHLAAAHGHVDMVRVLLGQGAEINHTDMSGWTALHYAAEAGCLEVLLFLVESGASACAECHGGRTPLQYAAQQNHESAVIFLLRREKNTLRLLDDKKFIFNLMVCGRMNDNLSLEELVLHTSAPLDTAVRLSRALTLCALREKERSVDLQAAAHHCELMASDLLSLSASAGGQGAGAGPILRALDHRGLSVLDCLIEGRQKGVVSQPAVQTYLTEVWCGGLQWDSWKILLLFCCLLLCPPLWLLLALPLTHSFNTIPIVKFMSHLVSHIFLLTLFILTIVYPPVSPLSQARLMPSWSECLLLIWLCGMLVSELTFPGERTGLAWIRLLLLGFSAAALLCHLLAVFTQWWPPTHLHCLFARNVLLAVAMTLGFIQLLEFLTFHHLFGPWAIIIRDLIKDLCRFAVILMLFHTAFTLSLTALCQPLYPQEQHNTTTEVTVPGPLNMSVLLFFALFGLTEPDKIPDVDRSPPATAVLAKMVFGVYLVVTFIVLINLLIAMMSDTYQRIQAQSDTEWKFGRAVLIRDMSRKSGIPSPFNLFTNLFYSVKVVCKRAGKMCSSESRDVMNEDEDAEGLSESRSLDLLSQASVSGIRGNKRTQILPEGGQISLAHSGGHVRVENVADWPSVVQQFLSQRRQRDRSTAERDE
Sequence of Mucolipin-3 (Q8TDD5 whole entry): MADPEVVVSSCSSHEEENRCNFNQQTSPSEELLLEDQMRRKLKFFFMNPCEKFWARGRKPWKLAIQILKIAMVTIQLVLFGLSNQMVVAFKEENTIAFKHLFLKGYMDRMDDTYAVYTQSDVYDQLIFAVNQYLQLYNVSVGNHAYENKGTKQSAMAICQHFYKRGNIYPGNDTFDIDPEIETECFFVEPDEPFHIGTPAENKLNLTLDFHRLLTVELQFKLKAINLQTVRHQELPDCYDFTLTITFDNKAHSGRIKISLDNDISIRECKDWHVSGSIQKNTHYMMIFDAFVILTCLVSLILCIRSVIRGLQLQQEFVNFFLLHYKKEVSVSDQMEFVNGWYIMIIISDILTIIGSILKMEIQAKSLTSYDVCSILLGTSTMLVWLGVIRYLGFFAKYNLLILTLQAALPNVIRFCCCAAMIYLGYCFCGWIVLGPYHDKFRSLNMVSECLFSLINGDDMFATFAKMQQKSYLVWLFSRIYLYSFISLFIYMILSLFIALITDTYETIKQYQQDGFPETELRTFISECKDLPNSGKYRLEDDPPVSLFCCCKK

For the molecule `COC(=O)c1cc(-c2ccc(S(=O)(=O)N3CCCCC3)cc2)c(C(F)(F)F)s1`, the EC50 at Mucolipin-3 and at Ion channel NompC was > 29.9 µM (not active) each time.

As for `COc1cc(OC)nc(-n2ncc(Br)c(Br)c2=O)n1`, the concentration at half-maximal activity (AC50) with INS1 is 6.03 µM (active); in assay [3], 20.6 µM (active); on Paired box protein Pax-8 it was 2.66 µM (active). Besides, the IC50 on Beta Lactamase is > 49.7 µM (inactive); with CHO, 0.546 µM (active); in assay [1], 1.18 µM (active); in “cells [5]”, 6.73 µM (active); in [9] it was 2.69 µM (active). In addition, the CC50 in the assay with HeLa is > 1.22 µM (not active); in assay [4] it was 0.402 µM (active); in assay [6] it was 1.36 µM (active); in assay [7], 1.98 µM (active). The EC50 in assay [2] and in assay [8] was < 0.059 µM (active) throughout.

Turning to `CC(Oc1ccc(Cl)cc1Cl)C(=O)Nc1ccc2oc(-c3ccncc3)nc2c1` (stereo not drawn), the EC50 in assay [10] was 8.75 µM (active); in the assay with Streptococcus it was 9.54 µM (active); on Streptokinase A, > 150 µM (not active); at Estrogen receptor, 11.4 µM (active).

Take `CCC1=NN2C(=N)/C(=C\c3cccn3-c3c(C)cccc3C)C(=O)N=C2S1`: the figures for the IC50 (in the assay “cells [11]”; in assay [12]) were 20.7 µM (active) and 38.4 µM (active), respectively. In addition, the CC50 in assay [13] was 19.5 µM (active). Besides, the AC50 in assay [14] was > 100 µM (inactive).

Consider `CCC(C(=O)O)n1nnc(-c2ccc(-c3ccc(OC)cc3)cc2)n1` (stereo not drawn), for which the IC50 at NS3 is 8.42 µM (active).

Consider `Cc1ccc(C)n1-c1ccc(C(=O)O)c(Cl)c1`, for which, at Bcl-2-like protein 10, the EC50 was 9.96 µM (active).

With `O=C(C1CCN(Cc2ccc(Cl)cc2)CC1)N1CCN(C(c2ccccc2)c2ccccc2)CC1`, the IC50 in [15] and in [16] was > 35 µM (not active) in each case.

As a reminder, the EC50 is the concentration giving half of the maximal effect. For orientation: AC50 means the concentration giving half of the maximal activity seen. Broadly, the IC50 is the concentration at which inhibition is half-maximal.

Source of the values: ChEMBL document CHEMBL1201862, “PubChem BioAssay data set” (2004).
